# Source: patent publication US12569452B2, “Ophthalmic compositions comprising F6H8” (NOVALIQ GMBH, priority 2017, dated 2026)
# Tests used:
# [1] = Ocular tissue distribution after multiple topical ocular doses of 14C-F6H8, liquid scintillation counting; assay type: in vivo, female Dutch Belted rabbits; details: for Mean concentration of radioactivity, Conjunctiva (bulbar) / Mean concentration of radioactivity, Conjunctiva (palpebral) / Mean concentration of radioactivity, Cornea / Mean concentration of radioactivity, Lacrimal gland (accessory) / Mean concentration of radioactivity, Lacrimal gland (main) / Mean concentration of radioactivity, Meibomian glands / Mean concentration of radioactivity, Sclera (anterior) / Mean concentration of radioactivity, Tears: multiple dose (nine doses)
# Description: Animals are not fasted prior to dose administration. All animals receive single 35 μL-drops of the dose formulation in each eye, with the right eye dosed first. All collection times are based on the time of dosing of the second (left) eye for the last dose, as applicable.
# After the dose is administered, the eye is allowed to close naturally. Each animal is then restrained for approximately 1 minute to prevent rubbing of the eyes.
# Tears and Ocular Tissue Collection: Tears are collected from two animals per group per time point at 0.25, 0.5, 1, 2, 4, 8, and 24 hours post-dose following the single dose or the last dose of the multiple dose scheme. Tears are collected using Tear Flo Test (TFT) strips that were dye free. One strip of paper is used for each eye for each time point. Following collection, the tube containing the strip is placed on dry ice or stored at approximately −70° C. until analysed.
# At the time of sacrifice, both eyes are enucleated and ocular tissues including Aqueous humour, Conjunctiva (bulbar), Conjunctiva (palpebral), Lacrimal gland (accessory), Lacrimal gland (main), Meibomian glands (tarsal plate), Choroid-Retinal pigmented epithelium (Choroid-RPE), Cornea, Iris-ciliary body (ICB), Retina, Sclera (anterior), Sclera (posterior), Vitreous humour are collected.
# Radioanalysis: All samples are analyzed for radioactivity in a Model 2900TR liquid scintillation counter (Packard Instrument Company) for at least 5 minutes or 100,000 counts, utilizing Ultima Gold XR or Hionic Fluor scintillation cocktails (Perkin Elmer). Each sample is homogenized before radioanalysis, unless the entire sample is used for analysis. All samples are analyzed in duplicate if sample size allows.
# For Conjunctiva (bulbar and palpebral), Cornea, Lacrimal gland (main), Meibomian glands, Retina, and Sclera (anterior and posterior), each sample is digested in 2M sodium hydroxide in ethanol (80:20, v:v) and maintained at room temperature or in an oven set no higher than 30° C. until dissolved. Scintillation cocktail is added, and the samples are shaken and analyzed directly by LSC.
# For Lacrimal gland (accessory), each sample is digested in 2M sodium hydroxide in ethanol (80:20, v:v) and maintained at room temperature or in an oven set no higher than 30° C. until dissolved. The sample is homogenized by mixing and duplicate weighed aliquots are analyzed directly by LSC.
# For Tears, at least 10 mL of Ultima Gold XR scintillation cocktail is added, and the samples are shaken and analyzed by LSC.
# Multiple topical ocular administration: The rabbits receive twice daily doses (approximately 12 hours apart±20 minutes) of 35 μl ^14C—F6H8 administered to both eyes for four consecutive days, and on the fifth day receive a single dose in the morning to both eyes (a total of nine doses). The administered dose level at each dosing occasion is approximately 47 mg/eye, equivalent to […]. Following the last dose on Study Day 5, two animals per time point are sacrificed at 0.25, 0.5, 1, 2, 4, 8, and 24 hours post-dose in a sparse sampling profile. Ocular tissues (including tears collected prior to sacrifice) are collected from all animals at sacrifice.
# [2] = Quantitative autoradiography of whole head after single topical ocular dose of 14C-F6H8; assay type: in vivo, female Dutch Belted rabbits; details: single dose 35 μl
# From the text: Quantitative Autoradiography: Animals are euthanized with sodium pentobarbital and blood is collected via cardiac puncture. Immediately after blood collection, the animals were frozen for quantitative autoradiography. The frozen heads are embedded in chilled carboxymethyl cellulose and frozen into blocks. Appropriate sections are collected on adhesive tape at […], in a Leica CM 3600 cryomicrotome. Mounted sections are exposed for 4 days on phosphor imaging screens along with fortified blood standards for subsequent calibration of the image analysis software and subsequently scanned using a Typhoon scanner. The autoradiographic standard image data are sampled using InterFocus Imaging Ltd. MCID™ Analysis software to create a calibrated standard curve. Specified tissues and fluids are analysed. Tissue concentrations are interpolated from each standard curve as nanocuries/g and then converted to ng equivalents/g on the basis of the test article specific activity.
# The highest concentrations (>10000 ng equivalents ^14C—F6H8/g) are found in the anterior tissues in the order eyelid margin (443000)>internal eyelid (171000)>cornea (33500). Other tissues with high concentrations are the external eyelid skin, nasolacrimal duct, and nasal turbinates.
# [3] = multiple dose, between 0.25 and 4 hours post-dose
substance,measurement,setting,value
^14C-1-Perfluorohexyloctane [^14C-F6H8],"Mean concentration of radioactivity, Conjunctiva (bulbar)",[1]; 0.25 h after last dose,8290 ng Equivalents ^14C-F6H8/g
same,"Mean concentration of radioactivity, Conjunctiva (palpebral)",[1]; 0.25 h after last dose,14000 ng Equivalents ^14C-F6H8/g
same,"Mean concentration of radioactivity, Cornea",[1]; 0.25 h after last dose,20600 ng Equivalents ^14C-F6H8/g
same,"Mean concentration of radioactivity, Lacrimal gland (accessory)",[1]; 0.25 h after last dose,7120 ng Equivalents ^14C-F6H8/g
same,"Mean concentration of radioactivity, Lacrimal gland (main)",[1]; 0.25 h after last dose,7090 ng Equivalents ^14C-F6H8/g
same,"Mean concentration of radioactivity, Meibomian glands",[1]; 0.25 h after last dose,222000 ng Equivalents ^14C-F6H8/g
same,"Mean concentration of radioactivity, Sclera (anterior)",[1]; 0.25 h after last dose,3550 ng Equivalents ^14C-F6H8/g
same,"Mean concentration of radioactivity, Tears",[1]; 0.25 h after last dose,2330000 ng Equivalents ^14C-F6H8/g
same,"Mean concentration of radioactivity, Conjunctiva (bulbar)",[1]; 0.5 h after last dose,5280 ng Equivalents ^14C-F6H8/g
same,"Mean concentration of radioactivity, Conjunctiva (palpebral)",[1]; 0.5 h after last dose,11900 ng Equivalents ^14C-F6H8/g
same,"Mean concentration of radioactivity, Cornea",[1]; 0.5 h after last dose,21000 ng Equivalents ^14C-F6H8/g
same,"Mean concentration of radioactivity, Lacrimal gland (accessory)",[1]; 0.5 h after last dose,8190 ng Equivalents ^14C-F6H8/g
same,"Mean concentration of radioactivity, Lacrimal gland (main)",[1]; 0.5 h after last dose,8140 ng Equivalents ^14C-F6H8/g
same,"Mean concentration of radioactivity, Meibomian glands",[1]; 0.5 h after last dose,145000 ng Equivalents ^14C-F6H8/g
same,"Mean concentration of radioactivity, Sclera (anterior)",[1]; 0.5 h after last dose,2650 ng Equivalents ^14C-F6H8/g
same,"Mean concentration of radioactivity, Tears",[1]; 0.5 h after last dose,872000 ng Equivalents ^14C-F6H8/g
same,"Mean concentration of radioactivity, Conjunctiva (bulbar)",[1]; 1 h after last dose,4440 ng Equivalents ^14C-F6H8/g
same,"Mean concentration of radioactivity, Conjunctiva (palpebral)",[1]; 1 h after last dose,11300 ng Equivalents ^14C-F6H8/g
same,"Mean concentration of radioactivity, Cornea",[1]; 1 h after last dose,27600 ng Equivalents ^14C-F6H8/g
same,"Mean concentration of radioactivity, Lacrimal gland (accessory)",[1]; 1 h after last dose,4770 ng Equivalents ^14C-F6H8/g
same,"Mean concentration of radioactivity, Lacrimal gland (main)",[1]; 1 h after last dose,4610 ng Equivalents ^14C-F6H8/g
same,"Mean concentration of radioactivity, Meibomian glands",[1]; 1 h after last dose,92900 ng Equivalents ^14C-F6H8/g
same,"Mean concentration of radioactivity, Sclera (anterior)",[1]; 1 h after last dose,3920 ng Equivalents ^14C-F6H8/g
same,"Mean concentration of radioactivity, Tears",[1]; 1 h after last dose,742000 ng Equivalents ^14C-F6H8/g
same,"Mean concentration of radioactivity, Conjunctiva (bulbar)",[1]; 2 h after last dose,3970 ng Equivalents ^14C-F6H8/g
same,"Mean concentration of radioactivity, Conjunctiva (palpebral)",[1]; 2 h after last dose,7510 ng Equivalents ^14C-F6H8/g
same,"Mean concentration of radioactivity, Cornea",[1]; 2 h after last dose,15900 ng Equivalents ^14C-F6H8/g
same,"Mean concentration of radioactivity, Lacrimal gland (accessory)",[1]; 2 h after last dose,5140 ng Equivalents ^14C-F6H8/g
same,"Mean concentration of radioactivity, Lacrimal gland (main)",[1]; 2 h after last dose,5040 ng Equivalents ^14C-F6H8/g
same,"Mean concentration of radioactivity, Meibomian glands",[1]; 2 h after last dose,100000 ng Equivalents ^14C-F6H8/g
same,"Mean concentration of radioactivity, Sclera (anterior)",[1]; 2 h after last dose,2080 ng Equivalents ^14C-F6H8/g
same,"Mean concentration of radioactivity, Tears",[1]; 2 h after last dose,832000 ng Equivalents ^14C-F6H8/g
same,"Mean concentration of radioactivity, Conjunctiva (bulbar)",[1]; 4 h after last dose,3840 ng Equivalents ^14C-F6H8/g
same,"Mean concentration of radioactivity, Conjunctiva (palpebral)",[1]; 4 h after last dose,6920 ng Equivalents ^14C-F6H8/g
same,"Mean concentration of radioactivity, Cornea",[1]; 4 h after last dose,17500 ng Equivalents ^14C-F6H8/g
same,"Mean concentration of radioactivity, Lacrimal gland (accessory)",[1]; 4 h after last dose,9280 ng Equivalents ^14C-F6H8/g
same,"Mean concentration of radioactivity, Lacrimal gland (main)",[1]; 4 h after last dose,8890 ng Equivalents ^14C-F6H8/g
same,"Mean concentration of radioactivity, Meibomian glands",[1]; 4 h after last dose,70300 ng Equivalents ^14C-F6H8/g
same,"Mean concentration of radioactivity, Sclera (anterior)",[1]; 4 h after last dose,3470 ng Equivalents ^14C-F6H8/g
same,"Mean concentration of radioactivity, Tears",[1]; 4 h after last dose,103000 ng Equivalents ^14C-F6H8/g
same,"Mean concentration of radioactivity, Conjunctiva (bulbar)",[1]; 8 h after last dose,2970 ng Equivalents ^14C-F6H8/g
same,"Mean concentration of radioactivity, Conjunctiva (palpebral)",[1]; 8 h after last dose,5160 ng Equivalents ^14C-F6H8/g
same,"Mean concentration of radioactivity, Cornea",[1]; 8 h after last dose,22000 ng Equivalents ^14C-F6H8/g
same,"Mean concentration of radioactivity, Lacrimal gland (accessory)",[1]; 8 h after last dose,5100 ng Equivalents ^14C-F6H8/g
same,"Mean concentration of radioactivity, Lacrimal gland (main)",[1]; 8 h after last dose,4650 ng Equivalents ^14C-F6H8/g
same,"Mean concentration of radioactivity, Meibomian glands",[1]; 8 h after last dose,52900 ng Equivalents ^14C-F6H8/g
same,"Mean concentration of radioactivity, Sclera (anterior)",[1]; 8 h after last dose,2650 ng Equivalents ^14C-F6H8/g
same,"Mean concentration of radioactivity, Tears",[1]; 8 h after last dose,32200 ng Equivalents ^14C-F6H8/g
same,"Mean concentration of radioactivity, Conjunctiva (bulbar)",[1]; 24 h after last dose,2750 ng Equivalents ^14C-F6H8/g
same,"Mean concentration of radioactivity, Conjunctiva (palpebral)",[1]; 24 h after last dose,4410 ng Equivalents ^14C-F6H8/g
same,"Mean concentration of radioactivity, Cornea",[1]; 24 h after last dose,16200 ng Equivalents ^14C-F6H8/g
same,"Mean concentration of radioactivity, Lacrimal gland (accessory)",[1]; 24 h after last dose,3480 ng Equivalents ^14C-F6H8/g
same,"Mean concentration of radioactivity, Lacrimal gland (main)",[1]; 24 h after last dose,3630 ng Equivalents ^14C-F6H8/g
same,"Mean concentration of radioactivity, Meibomian glands",[1]; 24 h after last dose,45500 ng Equivalents ^14C-F6H8/g
same,"Mean concentration of radioactivity, Sclera (anterior)",[1]; 24 h after last dose,2410 ng Equivalents ^14C-F6H8/g
same,"Mean concentration of radioactivity, Tears",[1]; 24 h after last dose,46800 ng Equivalents ^14C-F6H8/g
same,"Highest mean concentration, Meibomian glands",[1]; [3],222000 ng equivalents ^14C—F6H8/g
same,"Highest mean concentration, accessory lacrimal gland",[1]; [3],9280 ng equivalents ^14C—F6H8/g
same,"Highest mean concentration, bulbar conjunctiva",[1]; [3],8290 ng equivalents ^14C—F6H8/g
same,"Highest mean concentration, cornea",[1]; [3],27600 ng equivalents ^14C—F6H8/g
same,"Highest mean concentration, main lacrimal gland",[1]; [3],8890 ng equivalents ^14C—F6H8/g
same,"Highest mean concentration, palpebral conjunctiva",[1]; [3],14000 ng equivalents ^14C—F6H8/g
same,"Highest mean concentration, tears",[1]; [3],2330000 ng equivalents ^14C—F6H8/g
same,"Ocular tissue concentrations, multiple compared to single topical ocular administration",[1]; multiple vs single dose scheme,higher concentrations
same,"Highest concentration, cornea",[2],33500 ng equivalents ^14C—F6H8/g
same,"Highest concentration, eyelid margin",[2],443000 ng equivalents ^14C—F6H8/g
same,"Highest concentration, internal eyelid",[2],171000 ng equivalents ^14C—F6H8/g
